# Test results published in ChEMBL document CHEMBL5728788, “Inhibitors of dihydroceramide desaturase for treating disease” (2021).
# Target: T1, Sphingolipid delta(4)-desaturase DES1 (Homo sapiens, UniProt O15121)
# T1 sequence (O15121 whole entry): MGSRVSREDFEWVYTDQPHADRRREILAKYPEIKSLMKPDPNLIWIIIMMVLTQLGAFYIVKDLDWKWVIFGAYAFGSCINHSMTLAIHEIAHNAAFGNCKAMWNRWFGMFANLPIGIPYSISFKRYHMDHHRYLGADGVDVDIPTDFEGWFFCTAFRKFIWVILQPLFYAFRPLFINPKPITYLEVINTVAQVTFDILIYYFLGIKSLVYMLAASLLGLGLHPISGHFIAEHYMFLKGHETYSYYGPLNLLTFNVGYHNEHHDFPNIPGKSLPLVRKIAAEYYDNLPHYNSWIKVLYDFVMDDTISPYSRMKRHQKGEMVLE
# Experiment: Des1 Activity Assays: Jurkat clone E6-1 cells were grown and then seeded at 10^6 cells/mL in a 96-well plate (400 μL in each well. The cells were administered 100 μL of cell culture media containing 50-μM NBD-C6-dihydroceramide (Des1 substrate), affording a final concentration of substrate of 10 μM. The cells were incubated with substrate at 4° C. for 30 minutes. Following the incubation at 4° C., the cell suspension was centrifuged at 1200 rpm for 3 minutes, and the cell pellet is resuspended in 400 μL of fresh media containing various concentrations of either fenretinide (known Des1 inhibitor control compound) or test article. The final concentrations of control compound and test compounds were tested in a range from 0-10 μM. The cells and compounds were incubated at 37° C. for 3 hours. Following the 3-hour incubation, the plate was centrifuged at 2500 g for 3 minutes at 4° C., followed by collection and transfer of 200 μL of the supernatant to a new 96-well plate with 300 μL of methanol an containing appropriate internal standards for liquid chromatography/tandem mass spectroscopy (LC/MS/MS) analysis (internal standard: 500 nM labetalol and 100 nM alprazolam). The samples were vortexed for 2 minutes followed by centrifugation at 3,220 g for 20 minutes. Following centrifugation, 200 μL of the supernatant was transferred to a new 96-well plate for LC-MS/MS analysis to determine the amount of NBD-C6-ceramide (Des1 product) produced. The assay was typically performed in duplicate. A reduction of at least 30% compared to vehicle control (0 μM test article) is indicative of an active compound, and a reduction of 75% compared to vehicle control is preferred.
# Type: cell-based
row,IC50,SMILES
1,3.9 nM,O=C(CC1CCN(c2ccc(Cl)cn2)CC1)Nc1ccc(O)cn1
2,4500 nM,O=C(Cc1ccccc1)Nc1ccc(O)cn1
3,130 nM,O=C(Nc1ccc(O)cn1)c1ccc(-c2cccnc2)cc1
